Measured values reported in PubChem BioAssay (NCI).
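1) Cells in 96-well plates. 2) Compound, 48 h, 5 concentrations. 3) Linear interpolation between surrounding doses. 4) Unreached endpoint = highest concentration. TGI: total growth inhibition.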

What was measured:
Assay in all cases: NCI tumour cell line growth inhibition, 48 h
HCT-116 colon = tested on: HCT-116 colon
OVCAR-4 ovarian = tested on: OVCAR-4 ovarian
DMS 114 small cell lung = tested on: DMS 114 small cell lung
K-562 leukemia = tested on: K-562 leukemia
MCF7 breast = tested on: MCF7 breast
A498 renal = tested on: A498 renal
NCI/ADR-RES ovarian = tested on: NCI/ADR-RES ovarian
SK-OV-3 ovarian = tested on: SK-OV-3 ovarian
SF-295 CNS = tested on: SF-295 CNS
HOP-18 NSCLC = tested on: HOP-18 NSCLC
DLD-1 colon = tested on: DLD-1 colon
SN12K1 renal = tested on: SN12K1 renal
A549 NSCLC = tested on: A549 NSCLC
XF 498 CNS = tested on: XF 498 CNS
SK-MEL-2 melanoma = tested on: SK-MEL-2 melanoma
OVCAR-3 ovarian = tested on: OVCAR-3 ovarian
SNB-19 CNS = tested on: SNB-19 CNS
SK-MEL-28 melanoma = tested on: SK-MEL-28 melanoma
MOLT-4 leukemia = tested on: MOLT-4 leukemia
RPMI-8226 leukemia = tested on: RPMI-8226 leukemia
SNB-75 CNS = tested on: SNB-75 CNS
LOX IMVI melanoma = tested on: LOX IMVI melanoma
NCI-H460 lung = tested on: NCI-H460 lung
EKVX NSCLC = tested on: EKVX NSCLC
KM20L2 colon = tested on: KM20L2 colon
M19-MEL melanoma = tested on: M19-MEL melanoma
RXF 393 renal = tested on: RXF 393 renal
IGROV1 ovarian = tested on: IGROV1 ovarian
SW-620 colon = tested on: SW-620 colon
SNB-78 CNS = tested on: SNB-78 CNS
HT29 colon = tested on: HT29 colon
CAKI-1 renal = tested on: CAKI-1 renal
OVCAR-8 ovarian = tested on: OVCAR-8 ovarian
CCRF-CEM leukemia = tested on: CCRF-CEM leukemia
SK-MEL-5 melanoma = tested on: SK-MEL-5 melanoma
P388 leukemia = tested on: P388 leukemia
COLO 205 colon = tested on: COLO 205 colon
DMS 273 small cell lung = tested on: DMS 273 small cell lung
KM12 colon = tested on: KM12 colon
HL-60(TB) leukemia = tested on: HL-60(TB) leukemia
HOP-62 NSCLC = tested on: HOP-62 NSCLC
NCI-H23 lung = tested on: NCI-H23 lung
HOP-92 NSCLC = tested on: HOP-92 NSCLC
HCT-15 colon = tested on: HCT-15 colon
SF-268 CNS = tested on: SF-268 CNS
HCC-2998 colon = tested on: HCC-2998 colon
NCI-H522 lung = tested on: NCI-H522 lung
U251 CNS = tested on: U251 CNS
NCI-H226 lung = tested on: NCI-H226 lung
UACC-62 melanoma = tested on: UACC-62 melanoma
P388/ADR leukemia = tested on: P388/ADR leukemia
MALME-3M melanoma = tested on: MALME-3M melanoma
OVCAR-5 ovarian = tested on: OVCAR-5 ovarian
UO-31 renal = tested on: UO-31 renal
UACC-257 melanoma = tested on: UACC-257 melanoma
SF-539 CNS = tested on: SF-539 CNS

Question: How did the TGI (HCT-116 colon) turn out when `COC(=O)c1cccc(N[C@@H]2c3cc4c(cc3C(c3cc(OC)c(O)c(OC)c3)[C@H]3C(=O)OCC32)OCO4)c1` (stereo partly specified) was run?
Answer: 21.9 µM

Question: What about the TGI (OVCAR-4 ovarian) of the same compound?
Answer: > 100 µM

Question: What about the TGI (DMS 114 small cell lung) of the same compound?
Answer: 4.3 µM

Question: What about the TGI (K-562 leukemia) of the same compound?
Answer: 20.6 µM

Question: And the TGI (MCF7 breast)?
Answer: > 67.7 µM

Question: And the TGI (A498 renal)?
Answer: 3.46 µM

Question: And the TGI (NCI/ADR-RES ovarian)?
Answer: > 85.1 µM

Question: And the TGI (SK-OV-3 ovarian)?
Answer: 23.6 µM

Question: And the TGI (SF-295 CNS)?
Answer: 5.96 µM

Question: What about the TGI (HOP-18 NSCLC) of the same compound?
Answer: 21.6 µM

Question: And the TGI (DLD-1 colon)?
Answer: 15 µM

Question: What about the TGI (SN12K1 renal) of the same compound?
Answer: 9.75 µM

Question: And the TGI (A549 NSCLC)?
Answer: 3.25 µM

Question: What about the TGI (XF 498 CNS) of the same compound?
Answer: > 27.4 µM

Question: What about the TGI (SK-MEL-2 melanoma) of the same compound?
Answer: > 63 µM

Question: And the TGI (OVCAR-3 ovarian)?
Answer: 33.7 µM

Question: And the TGI (SNB-19 CNS)?
Answer: > 63.4 µM

Question: What about the TGI (SK-MEL-28 melanoma) of the same compound?
Answer: > 100 µM

Question: What about the TGI (MOLT-4 leukemia) of the same compound?
Answer: 1.36 µM

Question: What about the TGI (RPMI-8226 leukemia) of the same compound?
Answer: > 20.2 µM

Question: What about the TGI (SNB-75 CNS) of the same compound?
Answer: > 21 µM

Question: What about the TGI (LOX IMVI melanoma) of the same compound?
Answer: 11.3 µM

Question: And the TGI (NCI-H460 lung)?
Answer: 2.24 µM

Question: What about the TGI (EKVX NSCLC) of the same compound?
Answer: > 26.6 µM

Question: And the TGI (KM20L2 colon)?
Answer: > 32.7 µM

Question: And the TGI (M19-MEL melanoma)?
Answer: > 100 µM

Question: What about the TGI (RXF 393 renal) of the same compound?
Answer: 15.9 µM

Question: What about the TGI (IGROV1 ovarian) of the same compound?
Answer: > 50.7 µM

Question: What about the TGI (SW-620 colon) of the same compound?
Answer: > 100 µM

Question: What about the TGI (SNB-78 CNS) of the same compound?
Answer: 98.7 µM

Question: And the TGI (HT29 colon)?
Answer: 16 µM

Question: What about the TGI (CAKI-1 renal) of the same compound?
Answer: 2.91 µM

Question: What about the TGI (OVCAR-8 ovarian) of the same compound?
Answer: > 37 µM

Question: And the TGI (CCRF-CEM leukemia)?
Answer: 5.23 µM

Question: What about the TGI (SK-MEL-5 melanoma) of the same compound?
Answer: 3.02 µM

Question: And the TGI (P388 leukemia)?
Answer: 0.826 µM

Question: What about the TGI (COLO 205 colon) of the same compound?
Answer: 5.5 µM

Question: And the TGI (DMS 273 small cell lung)?
Answer: 3.35 µM

Question: And the TGI (KM12 colon)?
Answer: 10.2 µM

Question: And the TGI (HL-60(TB) leukemia)?
Answer: 1.1 µM

Question: And the TGI (HOP-62 NSCLC)?
Answer: 0.937 µM

Question: What about the TGI (NCI-H23 lung) of the same compound?
Answer: 4.01 µM

Question: What about the TGI (HOP-92 NSCLC) of the same compound?
Answer: 7.14 µM

Question: And the TGI (HCT-15 colon)?
Answer: 4.54 µM

Question: What about the TGI (SF-268 CNS) of the same compound?
Answer: > 42.5 µM

Question: And the TGI (HCC-2998 colon)?
Answer: 8.09 µM

Question: And the TGI (NCI-H522 lung)?
Answer: 8.75 µM

Question: What about the TGI (U251 CNS) of the same compound?
Answer: 12.2 µM

Question: What about the TGI (NCI-H226 lung) of the same compound?
Answer: 3.6 µM

Question: What about the TGI (UACC-62 melanoma) of the same compound?
Answer: 8.28 µM

Question: And the TGI (P388/ADR leukemia)?
Answer: 1.58 µM

Question: And the TGI (MALME-3M melanoma)?
Answer: 27.8 µM

Question: And the TGI (OVCAR-5 ovarian)?
Answer: > 100 µM

Question: And the TGI (UO-31 renal)?
Answer: 11.7 µM

Question: What about the TGI (UACC-257 melanoma) of the same compound?
Answer: 7.82 µM

Question: And the TGI (SF-539 CNS)?
Answer: 3.64 µM
